From PubChem BioAssay AID1963852 (Molecular Pharmacology Branch, DTP, NCI, 2024)

Tested on: 282377-053-R-J1-PDC complex spheroid viability
Test: Anticancer human tumor 282377-053-R-J1-PDC patient-derived colon adenocarcinoma cell line growth inhibition [POLQ]
Details: for IC50: curve of first compound; for viability, T/C: stronger effect = lower value
In short: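 Growth inhibition in 3D: complex spheroids (tumor PDC, HUVEC, MSC) treated with POLQ inhibitor combinations; where Cmax unknown, highest tested concentration 10 microM, except SN-38 at 1 microM.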

[1] = second compound 0.0316 µM, first compound 0.0316 µM
[2] = second compound 0.0316 µM, first compound 0.1 µM
[3] = second compound 0.0316 µM, first compound 0.316 µM
[4] = second compound 0.0316 µM, first compound 1 µM
[5] = second compound 0.0316 µM, first compound 3.16 µM
[6] = second compound 0.0316 µM, first compound 10 µM
[7] = second compound 0.1 µM, first compound 0.0316 µM
[8] = second compound 0.1 µM, first compound 0.1 µM
[9] = second compound 0.1 µM, first compound 0.316 µM
[10] = second compound 0.1 µM, first compound 1 µM
[11] = second compound 0.1 µM, first compound 3.16 µM
[12] = second compound 0.1 µM, first compound 10 µM
[13] = second compound 0.316 µM, first compound 0.0316 µM
[14] = second compound 0.316 µM, first compound 0.1 µM
[15] = second compound 0.316 µM, first compound 0.316 µM
[16] = second compound 0.316 µM, first compound 1 µM
[17] = second compound 0.316 µM, first compound 3.16 µM
[18] = second compound 0.316 µM, first compound 10 µM
[19] = second compound 1 µM, first compound 0.0316 µM
[20] = second compound 1 µM, first compound 0.1 µM
[21] = second compound 1 µM, first compound 0.316 µM
[22] = second compound 1 µM, first compound 1 µM
[23] = second compound 1 µM, first compound 3.16 µM
[24] = second compound 1 µM, first compound 10 µM
[25] = second compound 3.16 µM, first compound 0.0316 µM
[26] = second compound 3.16 µM, first compound 0.1 µM
[27] = second compound 3.16 µM, first compound 0.316 µM
[28] = second compound 3.16 µM, first compound 1 µM
[29] = second compound 3.16 µM, first compound 3.16 µM
[30] = second compound 3.16 µM, first compound 10 µM
[31] = second compound 10 µM, first compound 0.0316 µM
[32] = second compound 10 µM, first compound 0.1 µM
[33] = second compound 10 µM, first compound 0.316 µM
[34] = second compound 10 µM, first compound 1 µM
[35] = second compound 10 µM, first compound 3.16 µM
[36] = second compound 10 µM, first compound 10 µM
[37] = second compound 0.0316 µM, first compound 0.00316 µM
[38] = second compound 0.0316 µM, first compound 0.01 µM
[39] = second compound 0.1 µM, first compound 0.00316 µM
[40] = second compound 0.1 µM, first compound 0.01 µM
[41] = second compound 0.316 µM, first compound 0.00316 µM
[42] = second compound 0.316 µM, first compound 0.01 µM
[43] = second compound 1 µM, first compound 0.00316 µM
[44] = second compound 1 µM, first compound 0.01 µM
[45] = second compound 3.16 µM, first compound 0.00316 µM
[46] = second compound 3.16 µM, first compound 0.01 µM
[47] = second compound 10 µM, first compound 0.00316 µM
[48] = second compound 10 µM, first compound 0.01 µM
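Also: spheroids exposed to compounds for seven days.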
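For viability, T/C in this document: 100% = DMSO vehicle control viability.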

CC1COCCN1c1cc(C2(S(C)(=N)=O)CC2)nc(-c2ccnc3[nH]ccc23)n1 (stereo not drawn) + Cc1cccc(N(C)C(=O)C2C(O)CCN2c2nc(C)cc(C(F)(F)F)c2C#N)c1
IC50 (second compound 0.0316 µM): 7380 nM
IC50 (second compound 0.1 µM): > 10000 nM
IC50 (second compound 0.316 µM): > 10000 nM
IC50 (second compound 1 µM): > 10000 nM
IC50 (second compound 3.16 µM): > 10000 nM
IC50 (second compound 10 µM): 5130 nM
viability, T/C [1]: 113%
viability, T/C [2]: 81.7%
viability, T/C [3]: 108%
viability, T/C [4]: 77.6%
viability, T/C [5]: 66%
viability, T/C [6]: 44%
viability, T/C [7]: 98.3%
viability, T/C [8]: 103%
viability, T/C [9]: 77.5%
viability, T/C [10]: 84.4%
viability, T/C [11]: 71.8%
viability, T/C [12]: 54.3%
viability, T/C [13]: 91.3%
viability, T/C [14]: 101%
viability, T/C [15]: 80.8%
viability, T/C [16]: 89.5%
viability, T/C [17]: 98.2%
viability, T/C [18]: 50.2%
viability, T/C [19]: 107%
viability, T/C [20]: 111%
viability, T/C [21]: 83.6%
viability, T/C [22]: 86.1%
viability, T/C [23]: 69.5%
viability, T/C [24]: 52.5%
viability, T/C [25]: 93%
viability, T/C [26]: 84.4%
viability, T/C [27]: 123%
viability, T/C [28]: 114%
viability, T/C [29]: 64.9%
viability, T/C [30]: 49.7%
viability, T/C [31]: 90.6%
viability, T/C [32]: 73.6%
viability, T/C [33]: 89.1%
viability, T/C [34]: 80.2%
viability, T/C [35]: 55.4%
viability, T/C [36]: 42.7%

CCCS(=O)(=O)Nc1ccc(F)c(C(=O)c2c[nH]c3ncc(-c4ccc(Cl)cc4)cc23)c1F + Cc1cccc(N(C)C(=O)C2C(O)CCN2c2nc(C)cc(C(F)(F)F)c2C#N)c1
IC50 (second compound 0.0316 µM): > 10000 nM
IC50 (second compound 0.1 µM): > 10000 nM
IC50 (second compound 0.316 µM): > 10000 nM
IC50 (second compound 1 µM): > 10000 nM
IC50 (second compound 3.16 µM): > 10000 nM
IC50 (second compound 10 µM): > 10000 nM
viability, T/C [1]: 95.1%
viability, T/C [2]: 77.8%
viability, T/C [3]: 73.6%
viability, T/C [4]: 67.4%
viability, T/C [5]: 76.2%
viability, T/C [6]: 64.3%
viability, T/C [7]: 91.8%
viability, T/C [8]: 88.4%
viability, T/C [9]: 66.3%
viability, T/C [10]: 73.2%
viability, T/C [11]: 75.7%
viability, T/C [12]: 69.7%
viability, T/C [13]: 92.5%
viability, T/C [14]: 85.6%
viability, T/C [15]: 73%
viability, T/C [16]: 77.5%
viability, T/C [17]: 70%
viability, T/C [18]: 61.8%
viability, T/C [19]: 86.9%
viability, T/C [20]: 91.9%
viability, T/C [21]: 90.5%
viability, T/C [22]: 70.3%
viability, T/C [23]: 68%
viability, T/C [24]: 61.4%
viability, T/C [25]: 92.1%
viability, T/C [26]: 92.9%
viability, T/C [27]: 72.1%
viability, T/C [28]: 64.3%
viability, T/C [29]: 61.5%
viability, T/C [30]: 65%
viability, T/C [31]: 81.6%
viability, T/C [32]: 81.2%
viability, T/C [33]: 77.1%
viability, T/C [34]: 62.8%
viability, T/C [35]: 73.5%
viability, T/C [36]: 58.4%

COc1cccc(OCCCN)c1-c1cc(Nc2cnc(C#N)cn2)n[nH]1 + Cc1cccc(N(C)C(=O)C2C(O)CCN2c2nc(C)cc(C(F)(F)F)c2C#N)c1
IC50 (second compound 0.0316 µM): 632 nM
IC50 (second compound 0.1 µM): 559 nM
IC50 (second compound 0.316 µM): > 1000 nM
IC50 (second compound 1 µM): 545 nM
IC50 (second compound 3.16 µM): 300 nM
IC50 (second compound 10 µM): 395 nM
viability, T/C [37]: 102%
viability, T/C [38]: 98.5%
viability, T/C [1]: 85.8%
viability, T/C [2]: 74.5%
viability, T/C [3]: 60.9%
viability, T/C [4]: 43.1%
viability, T/C [39]: 100%
viability, T/C [40]: 95.4%
viability, T/C [7]: 97%
viability, T/C [8]: 73.4%
viability, T/C [9]: 60%
viability, T/C [10]: 41.5%
viability, T/C [41]: 91%
viability, T/C [42]: 88.5%
viability, T/C [13]: 86.1%
viability, T/C [14]: 64.2%
viability, T/C [15]: 55.7%
viability, T/C [16]: 49.2%
viability, T/C [43]: 109%
viability, T/C [44]: 90.2%
viability, T/C [19]: 72.9%
viability, T/C [20]: 59%
viability, T/C [21]: 57.3%
viability, T/C [22]: 45.1%
viability, T/C [45]: 95.9%
viability, T/C [46]: 102%
viability, T/C [25]: 84.7%
viability, T/C [26]: 65.7%
viability, T/C [27]: 51.8%
viability, T/C [28]: 39.4%
viability, T/C [47]: 85.3%
viability, T/C [48]: 90.1%
viability, T/C [31]: 72.3%
viability, T/C [32]: 61.8%
viability, T/C [33]: 55.8%
viability, T/C [34]: 39.6%

Cn1ncnc1[C@H]1c2n[nH]c(=O)c3cc(F)cc(c23)N[C@@H]1c1ccc(F)cc1 + Cc1cccc(N(C)C(=O)C2C(O)CCN2c2nc(C)cc(C(F)(F)F)c2C#N)c1
IC50 (second compound 0.0316 µM): > 100 nM
IC50 (second compound 0.1 µM): > 100 nM
IC50 (second compound 0.316 µM): > 100 nM
IC50 (second compound 1 µM): > 100 nM
IC50 (second compound 3.16 µM): > 100 nM
IC50 (second compound 10 µM): > 100 nM
viability, T/C (second compound 0.0316 µM, first compound 0.000316 µM): 111%
viability, T/C (second compound 0.0316 µM, first compound 0.001 µM): 86.9%
viability, T/C [37]: 105%
viability, T/C [38]: 128%
viability, T/C [1]: 98.3%
viability, T/C [2]: 89.3%
viability, T/C (second compound 0.1 µM, first compound 0.000316 µM): 125%
viability, T/C (second compound 0.1 µM, first compound 0.001 µM): 125%
viability, T/C [39]: 102%
viability, T/C [40]: 128%
viability, T/C [7]: 91.8%
viability, T/C [8]: 100%
viability, T/C (second compound 0.316 µM, first compound 0.000316 µM): 95.9%
viability, T/C (second compound 0.316 µM, first compound 0.001 µM): 114%
viability, T/C [41]: 98.2%
viability, T/C [42]: 93.5%
viability, T/C [13]: 111%
viability, T/C [14]: 95.5%
viability, T/C (second compound 1 µM, first compound 0.000316 µM): 116%
viability, T/C (second compound 1 µM, first compound 0.001 µM): 110%
viability, T/C [43]: 89%
viability, T/C [44]: 102%
viability, T/C [19]: 119%
viability, T/C [20]: 91.6%
viability, T/C (second compound 3.16 µM, first compound 0.000316 µM): 106%
viability, T/C (second compound 3.16 µM, first compound 0.001 µM): 130%
viability, T/C [45]: 82.9%
viability, T/C [46]: 115%
viability, T/C [25]: 88.5%
viability, T/C [26]: 112%
viability, T/C (second compound 10 µM, first compound 0.000316 µM): 105%
viability, T/C (second compound 10 µM, first compound 0.001 µM): 102%
viability, T/C [47]: 105%
viability, T/C [48]: 82.7%
viability, T/C [31]: 81.5%
viability, T/C [32]: 100%
